Drawing on article PMC12040169 (PLOS Biology, 2025), this text covers viability for 79 compounds.

What is called viability is a read-out of living cells in per cent, often relative to untreated cells.

A short description of this data set: in vitro. Conditions: human, hela cells, % viability.
As to `Cc1cn([C@H]2C[C@@H](O)[C@@H](CO)O2)c(=O)n(CCC#N)c1=O` [CBK201322], the viability at 28.5 h, 10 µM stood at 98.4%.
With `COc1ccc(-c2cc(C(=O)Nc3cnc4ccccc4c3)cnc2-c2cccc(C)c2)cn1` [CBK037425] the figure was 89.8%; with `O=C(Nc1ccc(C(F)(F)F)cc1)N1CCC(n2c(=O)[nH]c3ccccc32)CC1` [CBK149847], 83.1%; with `CC(C)[C@H](CO)NC(=O)c1cnc(-c2ccc(Cl)cc2)c(-c2ccco2)c1` [CBK036658], 108%.
The figure for `O=C(CC(C(=O)O)N1CCOCC1)Nc1ccc(Cl)cc1` (stereo not shown) [CBK267086] is 105%.
For `Cc1c(Cl)cccc1S(=O)(=O)N1CCCN(c2nc3ccc(Cl)cc3s2)CC1` [CBK014131], the viability at 28.5 h, 10 µM was 95.6%.
Regarding `CCOc1ccc(CCNC(=O)c2cnc(Nc3ccccc3OC)c3ccccc23)cc1OCC` [CBK291185], the viability at 28.5 h, 10 µM stood at 94.5%.
With `Cc1ccc(CCC(=O)N(CC(=O)O)C2CCOCC2)c(C)c1` [CBK304509] the figure was 91.6%; with `CN(C)CCn1c(=O)[nH]c2ncc(-c3cc(C(F)(F)F)cc(C(F)(F)F)c3)nc21` [CBK065028], 112%; with `OC(COc1ccccc1F)CSc1nc(NC2CC2)c2ccccc2n1` (stereo not shown) [CBK297902], 86.7%.
The figure for `Cc1nc(CN2CCC3(CC2)CN(C(=O)CO)c2ccccc23)cs1` [CBK131523] is 93.5%; for `Cc1cc2nc(SCCNC(=O)c3ccc(Cl)cc3)nc(C)c2cc1C` [CBK266223] it is 93.3%.
With `O=C(COc1ccc(Cl)cc1)NNC(=O)Cc1cccc2ccccc12` [CBK261693] the figure was 91.4%; with `Cc1nc(CCNC(=O)C2CCN(C(=O)c3ccc(F)cc3)CC2)cs1` [CBK304378], 105%; with `CC(NC(=O)c1ccc(-n2cccc2)cc1)c1ccccn1` (stereo not shown) [CBK296619], 91.4%.
On to `CC(=O)c1ccc(-c2cnc(N)c(NCC(C)C)n2)s1` [CBK063764], for which the viability at 28.5 h, 10 µM was found to be 92.8%.
The figure for `CCC(Sc1nnc(-c2ccc([N+](=O)[O-])cc2)n1C)C(=O)Nc1ccc(Cl)cc1` (stereo not shown) [CBK265785] is 101%; for `O=c1c2ccccc2nc2n1CCN(Cc1c(F)cccc1F)CC2` [CBK284817] it is 88.7%.
The figure for `O=C(O)CNC1=NC2(CCCCC2)Cc2ccccc21` [CBK287001] is 78.2%; for `Cc1noc(C)c1C(=O)NCCc1ccc(S(N)(=O)=O)cc1` [CBK268143] it is 104%; for `CCc1nc(COC(=O)C2CCN(C(=O)c3ccc(F)cc3)CC2)cs1` [CBK305725] it is 111%.
Take `CSCCCNC(=O)N1CCCCC1CO` (stereo not shown) [CBK156163]: the viability at 28.5 h, 10 µM is 108%.
The figure for `CN1CCN(S(=O)(=O)c2ccc(Br)cc2C(F)(F)F)CC1` [CBK062437] is 90.7%; for `CN(C(=O)C1CCN(C(=S)NCc2ccccc2)CC1)C(c1ccccc1)c1ccccn1` (stereo not shown) [CBK060476] it is 91.7%; for `O=C(O)COCc1cc(-c2ccc3c(c2)OCO3)on1` [CBK286883] it is 110%.
As to `CC(NC(=O)Nc1ccccc1O)(C(F)(F)F)C(F)(F)F` [CBK268019], the viability at 28.5 h, 10 µM was 101%.
The figure for `O=C(Cc1cn2ccsc2n1)NCCS(=O)(=O)N1CCc2ccccc21` [CBK304282] is 75.4%; for `CCc1cn(C[C@H](NC(=O)C2CCCC2)C(=O)O)c(=O)[nH]c1=O` [CBK289664] it is 106%; for `COc1ccc(C2CC(=O)c3c(C)n[nH]c3C2)cc1` (stereo not shown) [CBK287911] it is 114%.
As to `CC(C)(O)C#Cc1ccc(C(=O)N2CCN(Cc3ccccc3)CC2)cc1` [CBK263100], the viability at 28.5 h, 10 µM was 80.3%.
The figure for `CN(C)S(=O)(=O)NC1CC(C)(C)Cc2c1cnn2-c1ccccc1` (stereo not shown) [CBK307533] is 94.5%; for `Cc1nn(C)c2nc(NCc3ccc(C(=O)N4CCCCC4)cc3)sc12` [CBK306826] it is 86.6%; for `CCc1cc(C(=O)OC)c(NC(=O)C2C3C=CC(C3)C2C(=O)O)s1` (stereo not shown) [CBK270315] it is 94.9%.
With `Cn1ccnc1C(=O)N1C[C@H]2CCc3c(n[nH]c3C(F)(F)F)[C@H]2C1` [CBK283441] the figure was 101%.
With `S=C1NCN(Cc2ccccc2)CN1c1ccccc1` [CBK263536] the figure was 91.3%.
With `O=C(COc1ccc(F)cc1)N1CCN(c2ncccn2)CC1` [CBK144499], the viability at 28.5 h, 10 µM was 94.1%.
For `CCC1(CC)Cc2ccccc2-c2nc(NN)n(Cc3ccccc3)c(=O)c21` [CBK263217], the viability at 28.5 h, 10 µM is 102%.
The figure for `CS(=O)(=O)c1cccc(-c2cnc(NCCOc3ccccc3)c(C(=O)NCCc3ccccc3)c2)c1` [CBK076201] is 96.5%.
With `Cc1sc(NC(=S)NC(=O)COc2ccc(Br)cc2Cl)c(C(N)=O)c1C` [CBK266127] the figure was 111%; with `CCN1CCN(C(=O)C2CCCCC2C(=O)O)CC1` (stereo not shown) [CBK270337], 111%; with `CN(C)C(=O)c1ccc(-c2cnc3[nH]c(=O)n(CCCN4CCOCC4)c3n2)cc1` [CBK064828], 108%.
For the compound `Oc1ccc(/C=N/N(Cc2ccccc2)Cc2ccccc2)cc1` [CBK261414], the viability at 28.5 h, 10 µM is 98.2%.
With `COc1ccc(CCN(C)Cc2ccccn2)cc1OC` [CBK261912] the figure was 88.8%.
With `COc1ccc(CCNC(=O)[C@@H]2Cc3c([nH]c4ccccc34)[C@]3(CCN(Cc4ccccc4)C3)N2)cc1OC` [CBK062620] the figure was 114%; with `Cn1ccc(NC(=O)c2cccc(S(=O)(=O)N3CCCC3)c2)n1` [CBK306032], 104%; with `Cc1cccc(Nc2nc(N)nc(CC(=O)CSc3ccc(Cl)cc3)n2)c1` [CBK265204], 104%.
The figure for `Nc1nonc1C(=O)NCc1cccnc1` [CBK025695] is 95.9%; for `COc1ccccc1N1CCN(CCCCNS(=O)(=O)c2ccc(Cl)c(Cl)c2)CC1` [CBK074837] it is 97.8%; for `CCN(CC)C(=O)c1ccc(NS(=O)(=O)c2cc(F)c(Br)cc2F)cc1` [CBK034388] it is 90.1%.
Turning to `OC1CCC(Nc2cncc(-c3cccc(F)c3)n2)CC1` (stereo not shown) [CBK065449], the viability at 28.5 h, 10 µM was 97.8%.
Consider `c1ccc2c(c1)N1CCCN=C1N2CCN1CCOCC1` [CBK278300C], for which the viability at 28.5 h, 10 µM was found to be 108%.
The figure for `CC(=O)Nc1cccc(-c2cc(N3CCN(C(=O)c4ccco4)CC3)ncn2)c1` [CBK036959] is 93.7%.
The figure for `CCS(=O)(=O)N1CC2C3c4ccccc4C(c4ccccc43)C2C1` (stereo not shown) [CBK282328] is 98.5%.
With `Cc1ccc(NC(=S)N(CCN(C)C)Cc2cc3ccc(C)cc3[nH]c2=O)c(C)c1` [CBK135134] the figure was 92.4%.
`Cc1nc(O)cc(C2CCCN(C(=O)c3csc4c3CCCC4)C2)n1` (stereo not shown) [CBK306696]: the viability at 28.5 h, 10 µM is 87.3%.
The figure for `Cc1nn(CC(=O)N2CCN(C)CC2)c(=O)c2ccccc12` [CBK304221] is 93.3%; for `COc1ccc(CCN(Cc2ccc(Cl)c(Cl)c2)C(=O)Nc2cccnc2)cc1OC` [CBK158797] it is 96.1%.
As to `CCN(CC)C(=O)c1sc2ncccc2c1NS(=O)(=O)c1ccc(C)c([N+](=O)[O-])c1` [CBK050618], the viability at 28.5 h, 10 µM was found to be 112%.
The figure for `CN(C)c1cccc(-c2ccc(Nc3ccc(N4CCOCC4)cc3)nc2)c1` [CBK037735] is 92.2%; for `Cc1ccc(-c2nnc(COC(=O)c3c4c(nc5ccccc35)CCCC4)o2)cc1` [CBK269728] it is 105%.
As to `COC(=O)CNC(=O)c1cc(-c2ccc(C)s2)nc2c1cnn2C(C)C` [CBK305040], the viability at 28.5 h, 10 µM was 99.5%.
With `CS(=O)(=O)CCOCCNC(=O)c1cc(Br)cnc1Cl` [CBK305178] the figure was 86.4%; with `COc1ccc(N2CC(C(=O)N(C)CC(F)(F)F)CC2=O)cc1` (stereo not shown) [CBK281510], 98.2%; with `COc1ccc2cc3c(nc2c1)Sc1nncn1N=C3` [CBK021248], 100%.
Take `Cn1c(CCC(=O)Nc2c[nH]c3ccccc23)nc2ccccc21` [CBK282507]: the viability at 28.5 h, 10 µM was determined as 85.9%.
The figure for `O=C(Nc1ccc(S(=O)(=O)N2CCCC2)cc1)C1CC(=O)N(Cc2ccco2)C1` (stereo not shown) [CBK297500] is 92.5%; for `CC(C)(C)C(=O)Nc1cccc(OC(F)(F)C(F)Cl)c1` (stereo not shown) [CBK018091] it is 95%; for `O=C(COc1ccccc1)N1CCCC1c1cccc(Cc2ccc(F)cc2)n1` (stereo not shown) [CBK286230] it is 102%.
The figure for `C=CCn1c(-c2sc(NC(=O)CN3C(=C)c4ccccc4C3=O)nc2C)n[nH]c1=S` [CBK297909] is 84.4%; for `Cc1nn(CCC#N)c(C)c1CCC(=O)NCc1cn2ccccc2n1` [CBK304540] it is 88.1%; for `Nc1cc(S(=O)(=O)C(F)(F)F)ccc1C(=O)O` [CBK286646] it is 87%.
With `O=C(CCN1CCN(CCO)CC1)N1c2ccccc2Sc2ccc(C(F)(F)F)cc21` [CBK278218C] the figure was 96.4%.
`Cc1ccc(/C=C/C(=O)O)cc1S(=O)(=O)NCCO` [CBK264404]: the viability at 28.5 h, 10 µM is 93.2%.
The figure for `CCC(=O)NC(N(Cc1ccccc1)Cc1ccccc1)C(Cl)(Cl)Cl` (stereo not shown) [CBK261022] is 90.9%; for `O=C(COc1ccc2oc3c(c2c1)CCCC3)Nc1ccncc1` [CBK266227] it is 100%; for `CSCC(=O)N1CC[C@H](NC(=O)NC2CCCCC2)[C@H]1C(=O)N1CCC[C@@H]1C(N)=O` [CBK289265] it is 124%.
The figure for `COc1ccc(NC(=O)C2CC(=O)NC3=C2C(=O)CC(c2ccco2)C3)cc1` (stereo not shown) [CBK270282] is 90.6%; for `Cn1nccc1CNCc1cc(Br)ccc1Cl` [CBK305100] it is 88.3%; for `CCn1cc(C(=O)N2CCCC2c2nc3ccccc3[nH]2)c(C)n1` (stereo not shown) [CBK283777] it is 90.2%.
